Test results: PubChem BioAssay AID1963837 (Molecular Pharmacology Branch, DTP, NCI, 2024)

Tested on: 843126-344-R-J1-PDC complex spheroid viability
Experiment: Anticancer human tumor 843126-344-R-J1-PDC patient-derived melanoma cell line growth inhibition [POLQ]
Details: for IC50: curve of first compound; for viability, T/C: stronger effect = lower value
Protocol: Multicellular complex tumor spheroid response to Polymerase (POL) inhibitors (novobiocin, ART-558, RP6685) in combination with a variety of drugs and investigational agents in selected tumor cell lines
The POL inhibitors (novobiocin, ART-558, and RP6685) were evaluated both individually and in combination with standard of care and investigational anticancer small molecules within a complex spheroid model of solid tumors. . Complex spheroids include a stromal component modeled by human endothelial cells (HUVEC) and fibroblasts modeled by human mesenchymal stem cells (MSCs). The concentration ranges selected for each drug and investigational agent were based upon clinically achievable concentrations if the clinical Cmax of the agent was known.
Compounds. The drugs and investigational agents: novobiocin (NSC847541), ART-558 (NSC835418), RP-6685 (NSC848927), peposertib (NSC802822), ceralasertib (NSC780249), elimusertib (NSC800525), camonsertib (NSC841442), AZD-1390 (NSC803789), olaparib (NSC753686), talazoparib (NSC767125), rucaparib (NSC756644), sotorasib (NSC818433), MRTX-1133 (NSC836407), SN-38 (NSC673596), topotecan (NSC609699), epotoside (NSC141540), doxorubicin (NSC123127), gemcitabine (NSC613327), 5-fluorouracil (NSC19893), paclitaxel (NSC125973), vemurafenib (NSC761431), MSA-2 (NSC828583), SN-011 (NSC837082), adavosertib (NSC754352), prexasertib (NSC758257), carboplatin (NSC241240) and oxaliplatin (NSC266046), were obtained from the National Cancer Institute (NCI) Developmental Therapeutics Program Chemical Repository (21). The FDA-approved anticancer drug set is available from the Developmental Therapeutics Program at https://dtp.cancer.gov/organization/dscb/obtaining/. […] The stock solutions were prepared in dimethyl sulfoxide (DMSO, Sigma-Aldrich, St. Louis, MO, cat. D2650), except for the platinum compounds which were prepared in saline (Quality Biological, Gaithersburg, MD, cat. 114-055-101), at 800-fold the tested concentration and stored at -70 degrees C prior to their use. All drugs and investigational agents were tested over a range starting from a high concentration at or near the clinical Cmax and decreasing in half-log increments. If the clinical Cmax for an agent had not been determined, the highest concentration tested was 10 microM, except for SN-38, which was tested at a high concentration of 1 microM.
Cell Culture. All cells were maintained in an incubator at 37 degrees C and 5% CO2 with 95% humidity. The PDC lines were cultured according to standard operating procedures established by the NCI PDMR (https://pdmr.cancer.gov). Table 3 of the manuscript, lists the cell lines along with the number of the three cell types plated to form the mct-spheroids and media for tumor cell growth. After thawing, all PDC lines, except 997537-175-T-J1-PDC and 415267-285-R-J2-PDC, were cultured in Matrigel-coated flasks prepared with a working solution of 1X Ham's F-12 nutrient mix, without supplementation (Thermo Fisher Scientific, cat. 11765054), 100 U/mL penicillin-streptomycin (Thermo Fisher Scientific, cat. 15140122), and 2.5% Matrigel (Corning Inc., Corning, NY, cat. 354248) for the first three passages. The two PDC lines 997537-175-T-J1-PDC and 415267-285-R-J2-PDC were cultured on uncoated flasks. The 857933-349-R-J2-PDC line was cultured in 6C/Colon 1B media containing advanced DMEM/F-12 (Thermo Fisher Scientific, cat. 12634028), 10 mM HEPES (Thermo Fisher Scientific, cat. 15630080), 1X GlutaMAX supplement (Thermo Fisher Scientific, cat. 35050061), 0.1 mg/mL primocin (InvivoGen, San Diego, CA, cat. ant-pm-2), 10% defined fetal bovine serum, heat inactivated (HyClone Laboratories Inc., Logan, UT, cat. SH30070.03HI), 50% L-WRN conditioned media (ATCC, cat. CRL-3276), 1.25 mM N-Acetyl-L-cysteine (Sigma-Aldrich, cat. A9165), 10 mM nicotinamide (Sigma-Aldrich, cat. N0636), 1X B-27 supplement (Thermo Fisher Scientific, cat. 17504044), 1X N-2 supplement (Thermo Fisher Scientific, cat. […]
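For viability, T/C in this document: spheroids exposed to drugs for seven days before readout.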

CC(=O)O[C@H]1C(=O)[C@@]2(C)[C@H]([C@H](OC(=O)c3ccccc3)[C@]3(O)C[C@H](OC(=O)[C@H](O)[C@@H](NC(=O)c4ccccc4)c4ccccc4)C(C)=C1C3(C)C)[C@]1(OC(C)=O)CO[C@@H]1C[C@@H]2O + COC1C(OC(N)=O)C(O)C(Oc2ccc3c(O)c(NC(=O)c4ccc(O)c(CC=C(C)C)c4)c(=O)oc3c2C)OC1(C)C
IC50 (second compound 0.0316 µM): > 3000 nM
IC50 (second compound 0.1 µM): > 3000 nM
IC50 (second compound 0.316 µM): > 3000 nM
IC50 (second compound 1 µM): > 3000 nM
IC50 (second compound 3.16 µM): > 3000 nM
IC50 (second compound 10 µM): > 3000 nM
viability, T/C (second compound 0.0316 µM, first compound 0.00949 µM): 55.4%
viability, T/C (second compound 0.0316 µM, first compound 0.03 µM): 70%
viability, T/C (second compound 0.0316 µM, first compound 0.0949 µM): 56%
viability, T/C (second compound 0.0316 µM, first compound 0.3 µM): 69.8%
viability, T/C (second compound 0.0316 µM, first compound 0.949 µM): 61.2%
viability, T/C (second compound 0.0316 µM, first compound 3 µM): 68.9%
viability, T/C (second compound 0.1 µM, first compound 0.00949 µM): 63.9%
viability, T/C (second compound 0.1 µM, first compound 0.03 µM): 60.9%
viability, T/C (second compound 0.1 µM, first compound 0.0949 µM): 49.1%
viability, T/C (second compound 0.1 µM, first compound 0.3 µM): 55.3%
viability, T/C (second compound 0.1 µM, first compound 0.949 µM): 55.5%
viability, T/C (second compound 0.1 µM, first compound 3 µM): 57.5%
viability, T/C (second compound 0.316 µM, first compound 0.00949 µM): 55.6%
viability, T/C (second compound 0.316 µM, first compound 0.03 µM): 64.6%
viability, T/C (second compound 0.316 µM, first compound 0.0949 µM): 65.5%
viability, T/C (second compound 0.316 µM, first compound 0.3 µM): 57.1%
viability, T/C (second compound 0.316 µM, first compound 0.949 µM): 55.7%
viability, T/C (second compound 0.316 µM, first compound 3 µM): 61.1%
viability, T/C (second compound 1 µM, first compound 0.00949 µM): 60.2%
viability, T/C (second compound 1 µM, first compound 0.03 µM): 59.8%
viability, T/C (second compound 1 µM, first compound 0.0949 µM): 61.6%
viability, T/C (second compound 1 µM, first compound 0.3 µM): 60.4%
viability, T/C (second compound 1 µM, first compound 0.949 µM): 52.5%
viability, T/C (second compound 1 µM, first compound 3 µM): 52.1%
viability, T/C (second compound 3.16 µM, first compound 0.00949 µM): 63.6%
viability, T/C (second compound 3.16 µM, first compound 0.03 µM): 62.2%
viability, T/C (second compound 3.16 µM, first compound 0.0949 µM): 53.8%
viability, T/C (second compound 3.16 µM, first compound 0.3 µM): 57.2%
viability, T/C (second compound 3.16 µM, first compound 0.949 µM): 60.7%
viability, T/C (second compound 3.16 µM, first compound 3 µM): 50.9%
viability, T/C (second compound 10 µM, first compound 0.00949 µM): 65.4%
viability, T/C (second compound 10 µM, first compound 0.03 µM): 55.8%
viability, T/C (second compound 10 µM, first compound 0.0949 µM): 52.9%
viability, T/C (second compound 10 µM, first compound 0.3 µM): 54.6%
viability, T/C (second compound 10 µM, first compound 0.949 µM): 66.1%
viability, T/C (second compound 10 µM, first compound 3 µM): 57.1%

COc1cccc(OCCCN)c1-c1cc(Nc2cnc(C#N)cn2)n[nH]1 + COC1C(OC(N)=O)C(O)C(Oc2ccc3c(O)c(NC(=O)c4ccc(O)c(CC=C(C)C)c4)c(=O)oc3c2C)OC1(C)C
IC50 (second compound 0.0316 µM): 87.1 nM
IC50 (second compound 0.1 µM): 156 nM
IC50 (second compound 0.316 µM): 135 nM
IC50 (second compound 1 µM): 347 nM
IC50 (second compound 3.16 µM): 290 nM
IC50 (second compound 10 µM): 153 nM
viability, T/C (second compound 0.0316 µM, first compound 0.00316 µM): 78.6%
viability, T/C (second compound 0.0316 µM, first compound 0.01 µM): 85.6%
viability, T/C (second compound 0.0316 µM, first compound 0.0316 µM): 77.7%
viability, T/C (second compound 0.0316 µM, first compound 0.1 µM): 45.8%
viability, T/C (second compound 0.0316 µM, first compound 0.316 µM): 46.3%
viability, T/C (second compound 0.0316 µM, first compound 1 µM): 31.8%
viability, T/C (second compound 0.1 µM, first compound 0.00316 µM): 93.3%
viability, T/C (second compound 0.1 µM, first compound 0.01 µM): 81.8%
viability, T/C (second compound 0.1 µM, first compound 0.0316 µM): 73.2%
viability, T/C (second compound 0.1 µM, first compound 0.1 µM): 52%
viability, T/C (second compound 0.1 µM, first compound 0.316 µM): 44.1%
viability, T/C (second compound 0.1 µM, first compound 1 µM): 34.7%
viability, T/C (second compound 0.316 µM, first compound 0.00316 µM): 79.9%
viability, T/C (second compound 0.316 µM, first compound 0.01 µM): 76.8%
viability, T/C (second compound 0.316 µM, first compound 0.0316 µM): 65.3%
viability, T/C (second compound 0.316 µM, first compound 0.1 µM): 54.9%
viability, T/C (second compound 0.316 µM, first compound 0.316 µM): 39.8%
viability, T/C (second compound 0.316 µM, first compound 1 µM): 38.6%
viability, T/C (second compound 1 µM, first compound 0.00316 µM): 96%
viability, T/C (second compound 1 µM, first compound 0.01 µM): 76.9%
viability, T/C (second compound 1 µM, first compound 0.0316 µM): 76%
viability, T/C (second compound 1 µM, first compound 0.1 µM): 64.7%
viability, T/C (second compound 1 µM, first compound 0.316 µM): 52%
viability, T/C (second compound 1 µM, first compound 1 µM): 36.6%
viability, T/C (second compound 3.16 µM, first compound 0.00316 µM): 88.6%
viability, T/C (second compound 3.16 µM, first compound 0.01 µM): 85.2%
viability, T/C (second compound 3.16 µM, first compound 0.0316 µM): 65.3%
viability, T/C (second compound 3.16 µM, first compound 0.1 µM): 68.2%
viability, T/C (second compound 3.16 µM, first compound 0.316 µM): 49.4%
viability, T/C (second compound 3.16 µM, first compound 1 µM): 31.8%
viability, T/C (second compound 10 µM, first compound 0.00316 µM): 72.7%
viability, T/C (second compound 10 µM, first compound 0.01 µM): 76.2%
viability, T/C (second compound 10 µM, first compound 0.0316 µM): 70.2%
viability, T/C (second compound 10 µM, first compound 0.1 µM): 55.5%
viability, T/C (second compound 10 µM, first compound 0.316 µM): 40.8%
viability, T/C (second compound 10 µM, first compound 1 µM): 37.2%
